# Results: patent US7251525B2, “Treatment of arrhythmias via inhibition of a multifunctional calcium/calmodulin-dependent protein kinase” (The Board of Trustees of the Leland Stanford Jr. University, priority 1997, dated 2007)
# Assays:
# isolated rabbit hearts = test: Clofilium-induced early afterdepolarizations (EADs) in isolated perfused rabbit hearts; details: for left ventricular developed pressure (LVDP) following clofilium: clofilium 7.5 μmole/l
# Excerpt: FIG. 1. […] Data tracings show (from top to bottom) monophasic action potentials (MAP) and left ventricular (LV) pressure. The horizontal lines to the left of the LV pressure tracings (top to bottom) indicate 100 mm Hg and 0 mm Hg levels and 850 ms for panels A and B. All experiments with isolated hearts consisted of 3 periods. A fourth period (experimental period 4) was only added in hearts with EADs. Experimental periods are labeled 1-4 (top of page for both panels A and B). Experimental period 1 measurements represent control and follow >10 min of stabilization. […] Period 3 measurements follow addition of clofilium (7.5 μmole/l) and are taken at EAD initiation or from the longest action potential duration recorded over 30 min. Multiple EADs are seen as 2 oscillations during repolarization on the MAP tracings in experimental period 3. Secondary elevations in LV pressure coinciding with EADs are also seen in the LV pressure tracing in experimental period 3. Experimental period 4 measurements follow EAD termination by addition of nifedipine (10 μmole/l) (shown above) or Cd^2+ (200-500 μmole/l) (data not shown). The horizontal bars indicate the experimental conditions for both panels A and B. (B) Experimental design for isolated rabbit hearts treated with CaM kinase inhibitor KN-93. Arrangement of data tracings is the same as in FIG. 1A (above). Experimental periods are also the same as in FIG. 1A (above) except the active CaM kinase inhibitor KN-93 (0.5 μmole/l) was added 10 min prior to period 2 measurements. […] (C) Continuous record of EAD termination by nifedipine (10 μM) in a heart paced at a cycle length of 1500 ms. Data tracings show MAP with single EADs (top) and LV pressure (bottom). The horizontal lines to the left of the LV pressure tracings indicate 50 mm Hg and 0 mm Hg pressure levels (top to bottom). EAD termination occurs prior to the first discernible decrease (i.e. >10% below baseline) in LV pressure. The vertical arrow marks the first beat of EAD termination.
# New Zealand White rabbits of either gender (2.7-3.2 kg) were treated with a heparin bolus (150 U/kg IV) and killed by pentobarbital (50 mg/kg IV) overdose. Hearts were rapidly excised and placed in ice-cold Tyrode's solution for dissection of extracardiac tissue. (Tyrode's solution was composed of (mmol/l) NaCl (130.0), NaHCO3 (20.0), glucose (5.6), KCl (3.0), CaCl2 (2.0), NaH2PO4 (1.8), MgCl24H2O(0.7).) The aorta was cannulated, and perfused retrograde with Tyrode's solution. The perfusate (200 ml) was recirculated through a warming bath and filling pressure was adjusted to 20 cm of H2O. Recirculation time was ˜1 min, based on the time to decrease in left ventricular (LV) pressure following addition of ICa blockers to the recirculating perfusate. Temperature was monitored using a thermistor probe positioned in the right ventricle (RV) and maintained at 33±1° C. by a closed loop feed back system. The perfusate was vigorously bubbled with 95% O2, 5% CO2 and pH was monitored throughout the experiments and adjusted to 7.4 with LN NaOH or HCl, as appropriate. Both atria were removed and drains were placed in the RV and LV apices. An electrocardiogram (ecg) lead was sutured to the LV apex and the proximal pulmonary artery. Epicardial pacing wires were inserted into the RV free wall. Bradycardia was produced by crushing the AV node with a forceps. Epicardial pacing maintained a minimum cycle length of 1500 ms (heart rate of 40 beats/min). Pacing output was adjusted to twice diastolic threshold. In most experiments LV pressure was continuously monitored with a solid state transducer (Camino Laboratories) placed in a saline filled latex balloon. The balloon was secured with a purse string suture around the left atrial remnant and pressure was adjusted to maximize the LV developed pressure (LVDP) keeping the LV end diastolic pressure <10 mmHg. […]
# CaM kinase [1] = target: T1, CaM kinase (Oryctolagus cuniculus, UniProt O77708); test: Ca2+-independent CaM kinase activity in LV tissue from isolated rabbit hearts; details: clofilium 7.5 μmole/l; KN-93 pretreatment 0.5 μmol/l
# Protocol: FIG. 4. Percent calcium-independent CaM kinase activity in isolated rabbit hearts. Maximal (i.e. Ca^2+/calmodulin-dependent) and Ca^2+-independent CaM kinase activities were assayed from left ventricular (LV) tissue homogenates as described in Example 5, Experimental Methods. All hearts were initially isolated under control conditions. A stabilization period of ≧10 min was used for each isolated heart to ensure the absence of EADs, as indicated by monophasic action potentials (MAPs) recorded by a catheter positioned over the LV epicardium. […]
# Left ventricular homogenate was prepared as follows: after removal of the heart, it was placed in nominally Ca^2+ free ice-cold HEPES-buffered Tyrode's solution. […] Protein concentration was measured by the method of Bradford, using BSA as the standard.
# (§1) Assay of CaM kinase activity was performed essentially as described by Waldmann et al. with a few modifications. […] Calcium/calmodulin-dependent phosphorylation of the autocamtide 3 substrate was then quantitated as described. Calcium/calmodulin-independent CaM kinase activity was quantitated as described above, but Ca^2+ was omitted from the assay solution. […]
# [2] = test system: isolated rabbit ventricular myocytes; test: EAD induction in isolated rabbit ventricular myocytes in current clamp with low extracellular potassium; type: cell-based; details: cells dialyzed with peptide; for EADs induced (cells with EADs/cells): 1.0 mM extracellular potassium
# Protocol: Action potentials were induced in isolated rabbit ventricular myocytes studied in current clamp with low (1.0 mM) extracellular potassium to favor EAD induction.
# Action potential recording was performed in the following bath solution (mmol/L): NaCl 140.0, Glucose 10.0, HEPES 5.0, KCl 5.4, CaCl2 2.5, MgCl2 1.0; pH was adjusted to 7.4 with 10 N NaOH. The intracellular pipette solution for action potential recording contained (mmol/L): K aspartate 120.0, HEPES 10.0, EGTA 10.0, Na2ATP 5.0, MgCl2 4.0, CaCl2 3.0; pH was adjusted to 7.2 with 1N KOH. Unless otherwise noted, all chemicals were from Sigma.
# Cells were stimulated at 0.1 Hz in whole cell configuration in current clamp mode with 0.1 to 1.0 nA pulses of depolarizing current (1.25×threshold) for 2-3 ms at room temperature (20°-23° C.). Action potentials were low pass filtered at 2 KHz and sampled at 2.5 KHz with a 12-bit analog to digital converter (Digidata 1200 B, Axon Instruments). A long action potential waveform was digitized and stored for application as a voltage command using pClamp 6.03.
# [3] = test system: L-type calcium window current; test: L-type calcium window current with an EAD-containing action potential voltage clamp wave form; type: cell-based, rabbit; details: dialysis with peptide; data not shown
# isolated heart cells = test: Pacing-induced inward current (DAD-linked) in isolated heart cells, action potential voltage clamp; type: cell-based, rabbit; details: 0.5 Hz; for cells that developed inward currents: peptide 20 μmole/l dialyzed, 32° C.
# Protocol: FIG. 7. CaM kinase inhibition suppresses pacing induced inward current. Isolated heart cells were paced (0.5 Hz, T=32° C.) using a prolonged action potential voltage clamp command wave form. (A) A prolonged action potential was digitized and used as a voltage clamp command waveform for current tracings below. Command membrane potential is on the ordinate and time (for panels A-C) is on the abscissa (B) Inward currents developed after completion of the command wave form in 5/6 cells dialyzed with a control peptide (SEQ ID NO: 2, 20 μmole/l) devoid of CaM kinase inhibitory activity. Cell membrane currents are referenced on the ordinate for both panels B and C.
# Isolated heart cells (Experimental Methods, Example 6) were stimulated (0.5 Hz) in voltage clamp using a prolonged action potential wave form (FIG. 7A). Rapid pacing favors intracellular calcium overload. Inward currents that develop in response to rapid pacing are a marker for intracellular calcium overload and they are the basis for arrhythmogenic delayed afterdepolarizations (DADs).
# Isolated cells were studied with the action potential command wave form using voltage clamp methodology (Experimental Methods, Example 6). Cells were stimulated at 0.5 Hz and 32° C. (heated stage from Warner Instruments) for up to 100 beats. Recording solutions were identical to those for action potential recording except that the calcium buffer EGTA was omitted from the intracellular solution to favor intracellular calcium overload. The presence or absence of the post-repolarization inward current was noted.
# protein kinase A (PKA) = details: cited from earlier work
# protein kinase C (PKC) = details: cited from earlier work
# CaM kinase [4] = target: T1, CaM kinase; test: In vitro CaM kinase activity in left ventricular tissue homogenate; type: biochemical, rabbit; details: LV tissue homogenate; 0-100 μmol/l
# Protocol: FIG. 5. Effects of KN-93 and KN-92 on CaM kinase activity in vitro. CaM kinase activity in left ventricular tissue homogenate was assayed as described in Example 5, Experimental Methods. […] The solid line represents a fit to the KN-93 data using the Hill equation.
# Left ventricular homogenate was prepared as follows: after removal of the heart, it was placed in nominally Ca^2+ free ice-cold HEPES-buffered Tyrode's solution. One to two grams of the left ventricular free wall was cut away, coarsely minced, and suspended in 5-10 ml of cold homogenization buffer (mmol/l: 20 PIPES, 1 EDTA, 1 EGTA, 2 DTT, 10 sodium pyrophosphate, and 50-100 μg/ml leupeptin) at pH 7.0. Tissue suspension was homogenized at 4° C. using 3-10 sec bursts of a Polytron with 30 sec pauses inbetween bursts. The homogenate was then centrifuged at ˜10,000×g for 20 min at 4° C. using a JA-20 rotor. The supemate was removed and used directly in the assay. Protein concentration was measured by the method of Bradford, using BSA as the standard.
# as §1
# [5] = target: T2, L-type Ca2+ current (ICa) (Oryctolagus cuniculus, UniProt P15381); test: Whole cell voltage clamp of L-type Ca2+ current in single ventricular myocytes; type: cell-based, rabbit; details: for steady state inhibition of peak ICa: 0.5 μmol/l external application, cells dialyzed with BAPTA
# T2 construct: endogenous in cells; host or cells: freshly isolated New Zealand White rabbit ventricular myocytes
# CaM kinase [6] = details: cited from earlier work
# [7] = pretreatment 0.5 μmol/l, clofilium 7.5 μM
# T1 sequence (O77708 2-533): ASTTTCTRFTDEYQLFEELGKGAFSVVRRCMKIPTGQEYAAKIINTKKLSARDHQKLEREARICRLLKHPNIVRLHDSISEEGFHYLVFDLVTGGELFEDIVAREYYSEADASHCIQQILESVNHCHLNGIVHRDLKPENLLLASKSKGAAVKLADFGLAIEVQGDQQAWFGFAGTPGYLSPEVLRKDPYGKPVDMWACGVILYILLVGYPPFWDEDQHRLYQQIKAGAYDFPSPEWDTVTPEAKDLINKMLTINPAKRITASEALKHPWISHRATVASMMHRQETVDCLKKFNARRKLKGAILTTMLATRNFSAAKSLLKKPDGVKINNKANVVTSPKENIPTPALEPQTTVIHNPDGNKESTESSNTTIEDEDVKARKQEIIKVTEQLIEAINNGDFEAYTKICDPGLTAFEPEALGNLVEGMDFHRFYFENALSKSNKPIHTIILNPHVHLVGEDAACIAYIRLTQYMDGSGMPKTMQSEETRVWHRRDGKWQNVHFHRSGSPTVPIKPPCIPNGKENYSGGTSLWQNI
# T2 sequence (P15381 whole entry, other chains not shown): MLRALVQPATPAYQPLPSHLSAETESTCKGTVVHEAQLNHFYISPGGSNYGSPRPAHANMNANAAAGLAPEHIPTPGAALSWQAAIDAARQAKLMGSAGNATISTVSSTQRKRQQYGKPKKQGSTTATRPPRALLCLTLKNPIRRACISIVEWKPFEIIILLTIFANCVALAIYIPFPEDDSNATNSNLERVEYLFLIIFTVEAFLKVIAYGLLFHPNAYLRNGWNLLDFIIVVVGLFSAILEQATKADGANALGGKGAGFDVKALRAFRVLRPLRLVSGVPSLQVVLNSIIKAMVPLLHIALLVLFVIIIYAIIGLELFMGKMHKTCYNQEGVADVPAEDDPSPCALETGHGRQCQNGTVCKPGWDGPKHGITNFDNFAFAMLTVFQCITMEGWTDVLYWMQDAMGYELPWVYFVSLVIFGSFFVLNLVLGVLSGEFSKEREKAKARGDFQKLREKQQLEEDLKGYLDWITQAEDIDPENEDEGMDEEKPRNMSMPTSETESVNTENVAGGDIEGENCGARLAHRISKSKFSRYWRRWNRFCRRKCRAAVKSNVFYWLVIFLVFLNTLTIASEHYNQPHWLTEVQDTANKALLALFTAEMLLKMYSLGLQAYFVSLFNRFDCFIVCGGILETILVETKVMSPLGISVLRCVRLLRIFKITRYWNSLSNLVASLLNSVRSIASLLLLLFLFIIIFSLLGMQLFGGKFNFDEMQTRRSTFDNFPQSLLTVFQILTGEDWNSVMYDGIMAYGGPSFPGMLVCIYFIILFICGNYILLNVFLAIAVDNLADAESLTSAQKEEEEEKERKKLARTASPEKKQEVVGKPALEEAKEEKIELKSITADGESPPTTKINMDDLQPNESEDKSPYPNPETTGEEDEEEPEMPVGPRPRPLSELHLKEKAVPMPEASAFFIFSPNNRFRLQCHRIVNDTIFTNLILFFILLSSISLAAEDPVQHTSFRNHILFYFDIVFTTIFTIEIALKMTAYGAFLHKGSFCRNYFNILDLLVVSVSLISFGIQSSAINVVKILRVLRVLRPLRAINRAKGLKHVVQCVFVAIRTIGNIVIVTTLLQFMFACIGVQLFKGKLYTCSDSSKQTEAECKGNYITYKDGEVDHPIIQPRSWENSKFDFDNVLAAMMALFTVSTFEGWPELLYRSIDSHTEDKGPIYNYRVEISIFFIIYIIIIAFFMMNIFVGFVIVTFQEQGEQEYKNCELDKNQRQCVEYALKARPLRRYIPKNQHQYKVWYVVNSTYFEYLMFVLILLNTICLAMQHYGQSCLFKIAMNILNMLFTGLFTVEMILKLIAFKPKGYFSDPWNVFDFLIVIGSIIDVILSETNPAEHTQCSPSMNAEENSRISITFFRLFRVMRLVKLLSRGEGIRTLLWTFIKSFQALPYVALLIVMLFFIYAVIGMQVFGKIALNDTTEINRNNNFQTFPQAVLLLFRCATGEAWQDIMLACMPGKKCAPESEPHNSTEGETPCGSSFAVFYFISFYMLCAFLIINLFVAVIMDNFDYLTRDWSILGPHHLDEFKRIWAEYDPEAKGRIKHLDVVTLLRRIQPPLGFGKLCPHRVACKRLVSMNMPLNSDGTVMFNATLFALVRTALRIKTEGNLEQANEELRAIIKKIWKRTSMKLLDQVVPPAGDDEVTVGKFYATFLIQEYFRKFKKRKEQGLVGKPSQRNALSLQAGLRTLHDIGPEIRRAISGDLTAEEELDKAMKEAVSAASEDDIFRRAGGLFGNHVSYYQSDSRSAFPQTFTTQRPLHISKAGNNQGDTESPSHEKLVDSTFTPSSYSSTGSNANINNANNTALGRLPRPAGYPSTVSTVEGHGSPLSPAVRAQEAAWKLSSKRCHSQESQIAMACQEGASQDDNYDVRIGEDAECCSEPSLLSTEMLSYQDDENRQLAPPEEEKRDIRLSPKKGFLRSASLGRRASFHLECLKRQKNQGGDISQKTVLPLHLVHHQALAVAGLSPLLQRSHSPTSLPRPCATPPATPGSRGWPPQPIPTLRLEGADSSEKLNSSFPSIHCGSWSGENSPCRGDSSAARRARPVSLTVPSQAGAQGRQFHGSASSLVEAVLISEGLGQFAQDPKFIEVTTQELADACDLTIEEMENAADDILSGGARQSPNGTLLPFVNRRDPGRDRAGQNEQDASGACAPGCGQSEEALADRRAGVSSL
# T2 sequence (P13806 27-960 partner limits assumed, other chains not shown): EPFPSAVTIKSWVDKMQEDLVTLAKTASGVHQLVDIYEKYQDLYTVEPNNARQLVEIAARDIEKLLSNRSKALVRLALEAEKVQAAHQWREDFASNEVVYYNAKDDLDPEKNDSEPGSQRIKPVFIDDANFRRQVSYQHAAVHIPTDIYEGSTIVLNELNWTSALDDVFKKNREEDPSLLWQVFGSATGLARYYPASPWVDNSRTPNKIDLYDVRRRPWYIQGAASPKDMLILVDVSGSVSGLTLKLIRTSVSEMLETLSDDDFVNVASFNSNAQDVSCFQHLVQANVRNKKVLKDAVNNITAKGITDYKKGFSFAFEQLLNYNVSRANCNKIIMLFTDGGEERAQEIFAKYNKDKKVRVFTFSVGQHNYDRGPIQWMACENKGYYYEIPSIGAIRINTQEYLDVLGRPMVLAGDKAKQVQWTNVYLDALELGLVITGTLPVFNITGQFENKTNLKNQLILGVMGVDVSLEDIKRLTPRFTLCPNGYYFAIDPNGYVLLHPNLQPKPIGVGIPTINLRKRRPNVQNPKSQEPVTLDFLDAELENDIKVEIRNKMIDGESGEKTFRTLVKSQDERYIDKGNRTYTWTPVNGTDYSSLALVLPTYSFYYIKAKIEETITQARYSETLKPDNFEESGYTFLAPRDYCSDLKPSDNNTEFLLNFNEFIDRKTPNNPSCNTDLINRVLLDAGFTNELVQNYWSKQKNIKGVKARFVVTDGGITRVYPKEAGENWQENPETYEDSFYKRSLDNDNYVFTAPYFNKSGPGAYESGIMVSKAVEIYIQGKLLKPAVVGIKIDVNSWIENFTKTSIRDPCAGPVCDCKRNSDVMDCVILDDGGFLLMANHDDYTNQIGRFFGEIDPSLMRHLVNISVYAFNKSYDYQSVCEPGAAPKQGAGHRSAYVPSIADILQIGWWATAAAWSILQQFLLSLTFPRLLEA
# T2 sequence (P13806 961-1106 partner limits assumed, other chains not shown): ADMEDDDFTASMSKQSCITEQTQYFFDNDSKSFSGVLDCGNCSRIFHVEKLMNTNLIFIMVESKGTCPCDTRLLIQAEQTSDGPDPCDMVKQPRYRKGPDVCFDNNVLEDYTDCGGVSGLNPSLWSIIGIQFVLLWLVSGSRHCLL
Compound,Ca2+-independent CaM kinase activity compared to control (CaM kinase [1]),kind of EADs seen [2],EADs induced (cells with EADs/cells) [2],effect on L-type calcium window current [3],cells that developed inward currents (isolated heart cells),EADs in response to clofilium (hearts with EADs/hearts) (isolated rabbit hearts; [7]),multiple EADs (hearts with multiple EADs/hearts) (isolated rabbit hearts; [7]),left ventricular developed pressure (LVDP) following clofilium (isolated rabbit hearts; pretreatment 0.5 μmol/l),apparent voltage dependence of ICa activation [5],steady state inhibition of peak ICa [5] [%],effects on protein kinase A (PKA) (protein kinase A (PKA)),effects on protein kinase C (PKC) (protein kinase C (PKC)),also measured
CCCCCCC[N+](CC)(CC)CCCCc1ccc(Cl)cc1 [clofilium],increased significantly,,,,,,,,,,,,"EAD induction by clofilium in hearts without any pretreatment (isolated rabbit hearts; clofilium 7.5 μM, no pretreatment): 8/8"
KKALHAQERVDCL [SEQ ID NO: 2],,complex and repetitive,11/15,no significant effect,5/6,,,,,,,,
KKALHRQEAVDCL [SEQ ID NO: 1],,only single EADs,4/15,an increase in the current was prevented,0/5,,,,,,,,IC50 (protein kinase A (PKA)): ≥ 500 µM; IC50 (protein kinase C (PKC)): ≥ 500 µM
"COc1ccc(S(=O)(=O)Nc2ccccc2CN(C)CC=Cc2ccc(Cl)cc2)cc1 [KN-92, 2-N-(4-methoxybenzenesulfonyl)-amino-N-(4-chlorocinnamyl)N-methylbenzylamine]",,,,,,10/11,7/11,increased significantly,Neither KN-92 or KN-93 shifted,36.2±1.9,neither KN-93 nor KN-92 have appreciable effects,neither KN-93 nor KN-92 have appreciable effects,inhibition of CaM kinase activity (CaM kinase [4]): did not cause appreciable inhibition; CaM kinase inhibitory activity (CaM kinase [6]; congener used as experimental control): without CaM kinase inhibitory activity
Ryanodine,,,,,,,,,,,,,cells in which development of pacing induced inward currents was prevented (isolated heart cells; 10 μmole/l): 2/2
"COc1ccc(S(=O)(=O)N(CCO)c2ccccc2CN(C)CC=Cc2ccc(Cl)cc2)cc1 [KN-93, 2-[N-(2-hydroxyethyl)-N-(4-methoxy-benzenesulfonyl)]-amino-N-(4-chlorocinnamyl)-N-methylbenzylamine]",No significant increase,,,,,4/10,1/10,completely prevented the increase in LVDP,Neither KN-92 or KN-93 shifted,36.2±4.3,neither KN-93 nor KN-92 have appreciable effects,neither KN-93 nor KN-92 have appreciable effects,"MAP duration prolongation by clofilium (isolated rabbit hearts; pretreatment 0.5 μmol/l): without reducing MAP duration prolongation; peak steady state ICa inhibition relative to KN-92 ([5]; 1.0 μmol/l): more effective ICa inhibitor; Ki (CaM kinase [6]; read-out: reported Ki, competitive inhibition of calmodulin binding to CaM kinase): 0.37 µM"
